Literature values, collected in patent publication US20250032538A1, “METHOD AND COMPOSITION FOR RESTORING HOMEOSTASIS, TREATING, AND PREVENTING DEGENERATIVE DISEASES, ACHIEVING ANTI-AGING EFFECT” (Vector Vitale IP LLC, priority 2023, published 2025).
Read-outs that look alike come from different tables or passages of the source.

Tests used:
rats [1] = system: rats
rats [2] = conditions: rat, in vivo

Compound	half lethal dose (LD50) (rats [1]; intraperitoneal)	half lethal dose (LD50) (rats [1]; oral administration)	carcinogenicity: lung tumors (rats [2])
[Cl-].[Cl-].[Cl-].[Sc+3] [scandium (III) chloride]	4 mg/kg	755 mg/kg	
Titanium dioxide			increased lung tumors
